Measured values published in patent US20250250232A1, “AZETIDINE DERIVATIVES AND USE THEREOF AS DIPEPTIDYL PEPTIDASE 1 INHIBITORS” (CHIESI FARMACEUTICI S.P.A., priority 2022, published 2025).

Target: human DPP1 enzyme (Homo sapiens (Human), UniProt P53634)
Assay: Activity on human recombinant DPP1 isolated enzyme assay (H-Gly-Arg-AMC cleavage, fluorescence)
Assay type: biochemical
Conditions: 0.35 nM human DPP1, 300 μM H-Gly-Arg-AMC, 30 min pre-incubation at 25° C., pH 5.0
Protocol: Human DPP1 enzyme activity was determined by measuring release of the fluorophore aminomethyl coumarin (AMC) following enzymatic cleavage of the dipeptide substrate H-Gly-Arg-AMC. Assays were performed in black 384 well plates in 25 mM piperazine buffer, pH 5.0, containing 50 mM NaCl, 0.01% (v/v) Triton X100, 5 mM DTT with 0.35 nM human DPP1 enzyme, 300 μM H-Gly-Arg-AMC substrate (˜Km concentration) and test compounds at 0.51-10000 nM concentration range. Human DPP1 was pre-incubated with test compounds for 30 minutes at 25° C. prior to substrate incubation for a further 40 minutes at 25° C. Enzyme activity was determined by measuring fluorescence of the AMC product at excitation and emission wavelengths of 380 nm and 460 nm using a BMG LABTECH PHERA star plate reader. Test compound potencies are reported in Table 15 as pIC50 values generated from 4-parameter sigmoidal curve fitting of the measured concentration-inhibition responses.

Sequence of human DPP1 enzyme (P53634 231-394): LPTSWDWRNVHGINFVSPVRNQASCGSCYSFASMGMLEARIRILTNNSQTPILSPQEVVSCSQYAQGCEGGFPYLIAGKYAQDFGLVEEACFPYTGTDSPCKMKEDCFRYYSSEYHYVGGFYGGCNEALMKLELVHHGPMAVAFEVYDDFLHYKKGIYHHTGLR
Sequence of human DPP1 enzyme (P53634 25-134): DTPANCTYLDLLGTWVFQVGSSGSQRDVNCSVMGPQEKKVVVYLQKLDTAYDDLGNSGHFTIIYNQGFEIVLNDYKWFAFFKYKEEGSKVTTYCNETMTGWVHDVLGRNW
Sequence of human DPP1 enzyme (P53634 395-463): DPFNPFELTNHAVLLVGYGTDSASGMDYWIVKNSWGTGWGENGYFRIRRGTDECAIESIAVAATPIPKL

Compound | h DPP1 pIC50
N#C[C@H](Cc1ccc(-c2ccc3c(c2)C2(CCN(C4COC4)CC2)OC3)cc1F)NC(=O)C1(C(F)F)CNC1 [Example 15, (S)-N-(1-cyano-2-(2-fluoro-4-(1′-(oxetan-3-yl)-3H-spiro[isobenzofuran-1,4′-piperidin]-6-yl)phenyl)ethyl)-3-(difluoromethyl)azetidine-3-carboxamide] | ++++ (h DPP1 pIC50 higher than 8)
COC1(C(=O)N[C@H](C#N)Cc2ccc(-c3ccc4c(c3)C3(CCN(C5COC5)CC3)OC4)cc2F)CN(C)C1 [Example 47, (S)-N-(1-cyano-2-(2-fluoro-4-(1′-(oxetan-3-yl)-3H-spiro[isobenzofuran-1,4′-piperidin]-6-yl)phenyl)ethyl)-3-methoxy-1-methylazetidine-3-carboxamide] | ++++ (h DPP1 pIC50 higher than 8)

Now from value to molecule:

h DPP1 pIC50 | Compound
++++ (h DPP1 pIC50 higher than 8) | CN1C(=O)Cc2ccc(-c3ccc(C[C@@H](C#N)NC(=O)C4(CF)CNC4)c(F)c3)cc21 [Example 48, (S)-N-(1-cyano-2-(2-fluoro-4-(1-methyl-2-oxoindolin-6-yl)phenyl)ethyl)-3-(fluoromethyl)azetidine-3-carboxamide]
++++ (h DPP1 pIC50 higher than 8) | COC1(C(=O)N[C@H](C#N)Cc2ccc(-c3ccc4oc(=O)n(C)c4c3)cc2F)CN(C)C1 [Example 37, (S)-N-(1-cyano-2-(2-fluoro-4-(3-methyl-2-oxo-2,3-dihydrobenzo[d]oxazol-5-yl)phenyl)ethyl)-3-methoxy-1-methylazetidine-3-carboxamide]
++++ (h DPP1 pIC50 higher than 8) | COC1(C(=O)N[C@H](C#N)Cc2ccc(-c3ccc4oc(=O)n(C)c4c3)cc2F)CNC1 [Example 36, (S)-N-(1-cyano-2-(2-fluoro-4-(3-methyl-2-oxo-2,3-dihydrobenzo[d]oxazol-5-yl)phenyl)ethyl)-3-methoxyazetidine-3-carboxamide]
++++ (h DPP1 pIC50 higher than 8) | COC1(C(=O)N[C@H](C#N)Cc2ccc(-c3ccc4c(c3)N(C)C(=O)C4)cc2F)CNC1 [Example 49, (S)-N-(1-cyano-2-(2-fluoro-4-(1-methyl-2-oxoindolin-6-yl)phenyl)ethyl)-3-methoxyazetidine-3-carboxamide]

Same assay, conditions: 0.35 nM human DPP1, 300 μM H-Gly-Arg-AMC, 30 min pre-incubation at 25° C., pH 5.0; read-out: h DPP1 pIC50 (converted)

Compound | IC50 [nM]
N#Cc1ccc(-c2ccc(C[C@@H](C#N)NC(=O)C3(C(F)(F)F)CNC3)cc2)cc1 [Example 17, (S)-N-(1-cyano-2-(4′-cyano-[1,1′-biphenyl]-4-yl)ethyl)-3-(trifluoromethyl)azetidine-3-carboxamide] | 10 to 100
Cn1c(=O)oc2ccc(-c3ccc(C[C@@H](C#N)NC(=O)C4(C(F)F)CNC4)cc3)cc21 [Example 14, (S)-N-(1-cyano-2-(4-(3-methyl-2-oxo-2,3-dihydrobenzo[d]oxazol-5-yl)phenyl)ethyl)-3-(difluoromethyl)azetidine-3-carboxamide] | 10 to 100
N#Cc1ccc(-c2ccc(C[C@@H](C#N)NC(=O)C3(Cc4ccccc4)CNC3)cc2)cc1 [Example 20, (S)-3-benzyl-N-(1-cyano-2-(4′-cyano-[1,1′-biphenyl]-4-yl)ethyl)azetidine-3-carboxamide] | 1000 to 10000
CC1(C)NCC1C(=O)N[C@H](C#N)Cc1ccc(-c2ccc(C#N)cc2)cc1 (stereo partly drawn) [Example 4, N-((S)-1-cyano-2-(4′-cyano-[1,1′-biphenyl]-4-yl)ethyl)-2,2-dimethylazetidine-3-carboxamide] | 1000 to 10000
N#Cc1ccc(-c2ccc(C[C@@H](C#N)NC(=O)C3(Oc4ccccc4)CNC3)cc2)cc1 [Example 21, (S)-N-(1-cyano-2-(4′-cyano-[1,1′-biphenyl]-4-yl)ethyl)-3-phenoxyazetidine-3-carboxamide] | 1000 to 10000
N#Cc1ccc(-c2ccc(C[C@@H](C#N)NC(=O)C3(O)CNC3)cc2)cc1 [Example 1, (S)-N-(1-cyano-2-(4′-cyano-[1,1′-biphenyl]-4-yl)ethyl)-3-hydroxyazetidine-3-carboxamide] | 100 to 1000
N#Cc1ccc(-c2ccc(C[C@@H](C#N)NC(=O)C3(C(F)F)CNC3)c(F)c2)cc1 [Example 13, (S)-N-(1-cyano-2-(4′-cyano-3-fluoro-[1,1′-biphenyl]-4-yl)ethyl)-3-(difluoromethyl)azetidine-3-carboxamide] | 10 to 100
CN1CC(C(=O)N[C@H](C#N)Cc2ccc(-c3ccc4c(c3)C3(CCN(C5COC5)CC3)OC4)cc2F)(C(F)F)C1 [Example 39, (S)-N-(1-cyano-2-(2-fluoro-4-(1′-(oxetan-3-yl)-3H-spiro[isobenzofuran-1,4′-piperidin]-6-yl)phenyl)ethyl)-3-(difluoromethyl)-1-methylazetidine-3-carboxamide] | 10 to 100
N#Cc1ccc(-c2ccc(C[C@@H](C#N)NC(=O)C3(CF)CNC3)cc2)cc1 [Example 8, (S)-N-(1-cyano-2-(4′-cyano-[1,1′-biphenyl]-4-yl)ethyl)-3-(fluoromethyl)azetidine-3-carboxamide] | 10 to 100
COC1(C(=O)N[C@H](C#N)Cc2ccc(-c3ccc(C#N)cc3)cc2)CNC1 [Example 6, (S)-N-(1-cyano-2-(4′-cyano-[1,1′-biphenyl]-4-yl)ethyl)-3-methoxyazetidine-3-carboxamide] | 10 to 100
CCOC1(C(=O)N[C@H](C#N)Cc2ccc(-c3ccc(C#N)cc3)cc2)CNC1 [Example 11, (S)-N-(1-cyano-2-(4′-cyano-[1,1′-biphenyl]-4-yl)ethyl)-3-ethoxyazetidine-3-carboxamide] | 10 to 100
COC1(C(=O)N[C@H](C#N)Cc2ccc(-c3ccc(C#N)cc3)cc2F)CNC1 [Example 12, (S)-N-(1-cyano-2-(4′-cyano-3-fluoro-[1,1′-biphenyl]-4-yl)ethyl)-3-methoxyazetidine-3-carboxamide] | 10 to 100
N#Cc1ccc(-c2ccc(C[C@@H](C#N)NC(=O)C3(C(F)F)CNC3)cc2)cc1 [Example 7, (S)-N-(1-cyano-2-(4′-cyano-[1,1′-biphenyl]-4-yl)ethyl)-3-(difluoromethyl)azetidine-3-carboxamide] | 10 to 100
CSC1(C(=O)N[C@H](C#N)Cc2ccc(-c3ccc(C#N)cc3)cc2)CNC1 [Example 18, (S)-N-(1-cyano-2-(4′-cyano-[1,1′-biphenyl]-4-yl)ethyl)-3-(methylthio)azetidine-3-carboxamide] | 10 to 100

Results, then the molecule that gave them:

IC50 [nM] | Compound
10 to 100 | COC1(C(=O)N[C@H](C#N)Cc2ccc(-c3ccc4c(c3)N(C)C(=O)C4)cc2)CNC1 [Example 22, (S)-N-(1-cyano-2-(4-(1-methyl-2-oxoindolin-6-yl)phenyl)ethyl)-3-methoxyazetidine-3-carboxamide]
100 to 1000 | CCN1CC(OC)(C(=O)N[C@H](C#N)Cc2ccc(-c3ccc(C#N)cc3)cc2)C1 [Example 52, (S)-N-(1-cyano-2-(4′-cyano-[1,1′-biphenyl]-4-yl)ethyl)-1-ethyl-3-methoxyazetidine-3-carboxamide]
100 to 1000 | COC1(C(=O)NC(C#N)Cc2ncc(-c3ccc(C#N)cc3)cc2F)CNC1 (stereo not shown) [Example 42, N-(1-cyano-2-(5-(4-cyanophenyl)-3-fluoropyridin-2-yl)ethyl)-3-methoxyazetidine-3-carboxamide]
1000 to 10000 | CC(C)OC1(C(=O)N[C@H](C#N)Cc2ccc(-c3ccc(C#N)cc3)cc2)CNC1 [Example 26, (S)-N-(1-cyano-2-(4′-cyano-[1,1′-biphenyl]-4-yl)ethyl)-3-isopropoxyazetidine-3-carboxamide]
100 to 1000 | CN1CC(C(=O)N[C@H](C#N)Cc2ccc(-c3ccc(C#N)cc3)cc2)(C(F)F)C1 [Example 35, (S)-N-(1-cyano-2-(4′-cyano-[1,1′-biphenyl]-4-yl)ethyl)-3-(difluoromethyl)-1-methylazetidine-3-carboxamide]
100 to 1000 | COC1(C(=O)N[C@H](C#N)Cc2ccc(-c3ccc(C#N)cc3)cc2)CNC1C (stereo partly drawn) [Example 31, N-((S)-1-cyano-2-(4′-cyano-[1,1′-biphenyl]-4-yl)ethyl)-3-methoxy-2-methylazetidine-3-carboxamide]
10 to 100 | CN1CC(C(=O)N[C@H](C#N)Cc2ccc(-c3ccc(C#N)cc3)cc2F)(C(F)F)C1 [Example 40, (S)-N-(1-cyano-2-(4′-cyano-3-fluoro-[1,1′-biphenyl]-4-yl)ethyl)-3-(difluoromethyl)-1-methylazetidine-3-carboxamide]
1000 to 10000 | COC1(C(=O)N[C@H](C#N)Cc2ccc(-c3ccc(C#N)cc3)cc2)CN(CC(C)C)C1 [Example 51, (S)-N-(1-cyano-2-(4′-cyano-[1,1′-biphenyl]-4-yl)ethyl)-1-isobutyl-3-methoxyazetidine-3-carboxamide]
1000 to 10000 | N#Cc1ccc(-c2ccc(C[C@@H](C#N)NC(=O)C3CN(C4COC4)C3)cc2)cc1 [Example 23, (S)-N-(1-cyano-2-(4′-cyano-[1,1′-biphenyl]-4-yl)ethyl)-1-(oxetan-3-yl)azetidine-3-carboxamide]
10 to 100 | COC1(C(=O)NC(C#N)Cc2ncc(-c3ccc(C#N)cc3)cc2F)CN(C)C1 (single isomer, unassigned; enantiomer 1) [Example 44, enantiomer 1 of N-(1-cyano-2-(5-(4-cyanophenyl)-3-fluoropyridin-2-yl)ethyl)-3-methoxy-1-methylazetidine-3-carboxamide]
1000 to 10000 | COC1(C(=O)NC(C#N)Cc2ncc(-c3ccc(C#N)cc3)cc2F)CN(C)C1 (single isomer, unassigned; enantiomer 2) [Example 45, Enantiomer 2 of N-(1-cyano-2-(5-(4-cyanophenyl)-3-fluoropyridin-2-yl)ethyl)-3-methoxy-1-methylazetidine-3-carboxamide]
